Test results taken from patent EP3315495A1, “N,N' -[…], N,N' -DIAR[…] N,N' -DIARY[…] FOR USE IN TREATMENT AND PREVENTION OF INFLAMMATORY DISEASE” (Universität Innsbruck, priority 2016, dated 2018).
Like-named read-outs stand apart in the source and are kept apart here. Marks after values point to notes of the source that are not given here.

What was measured:
HEK cells with FLAP = test: 5-LOX product formation in HEK cells that express FLAP
15-LOX = assay type: cell-based; settings: neutrophils
Description: (§1) […]. […] This could be beneficial as the 15-LOX product 15-HETE is anti-inflammatory.

12-LOX = assay type: cell-based; settings: neutrophils, exogenous AA 10, 30 or 60 µM
Description: as §1

mPGES = mPGES activity; assay type: biochemical; settings: concentrations up to 10 µM
COX-1 = COX-1 (Homo sapiens, UniProt P23219); test: COX-1 activity; assay type: biochemical; settings: concentrations up to 10 µM
Chain of COX-1 (P23219 24-599): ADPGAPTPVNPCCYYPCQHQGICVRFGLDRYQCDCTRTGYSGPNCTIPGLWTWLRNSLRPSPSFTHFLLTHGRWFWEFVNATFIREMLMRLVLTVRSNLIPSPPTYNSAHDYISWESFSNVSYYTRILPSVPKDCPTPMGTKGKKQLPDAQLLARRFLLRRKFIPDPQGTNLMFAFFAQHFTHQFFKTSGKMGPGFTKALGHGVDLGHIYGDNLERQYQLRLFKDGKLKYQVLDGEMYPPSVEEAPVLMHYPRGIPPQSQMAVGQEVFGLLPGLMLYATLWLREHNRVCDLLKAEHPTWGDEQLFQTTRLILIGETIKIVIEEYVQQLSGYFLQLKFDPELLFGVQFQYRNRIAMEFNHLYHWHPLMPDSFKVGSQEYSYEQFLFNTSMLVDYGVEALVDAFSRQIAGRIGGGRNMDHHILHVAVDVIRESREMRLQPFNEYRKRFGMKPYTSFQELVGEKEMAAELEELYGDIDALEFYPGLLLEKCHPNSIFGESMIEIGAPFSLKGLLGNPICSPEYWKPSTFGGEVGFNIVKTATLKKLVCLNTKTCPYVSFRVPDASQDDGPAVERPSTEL

[1] = tested on: 5-LOX product formation in PMNL; test: 5-LOX product formation in PMNL stimulated with A23187 (cell-based); design: species or system human; settings: for inhibition at 10 µM: read-out: Effect on 5-LOX product formation in PMNL, % inhibition
Protocol: Briefly, first a cell-based assay allows to determine the inhibition of the 5-LOX product biosynthesis. The cell suspension contained human neutrophils (PMNL) or monocytes, wherein the cells were isolated from buffy coats obtained from healthy donors pooled by gender. An aliquot cell suspension was incubated with the candidate compound for 15 min at 37 °C. The cells are treated with calcium ionophore A23187 to stimulate 5-LOX product formation for further 10 min (37 °C), optionally in presence of various concentrations of AA. The reaction was stopped with 1 mL methanol on ice.
(§2) In both assays, product quantification was conducted with RP-HPLC and UV detection after solid phase extraction and addition of 200 ng prostaglandin B1 as internal standard.

[2] = tested on: leukotriene mediated peritonitis; test: Zymosan-induced peritonitis model in mice; assay type: in vivo, CD1 male mice; settings: intraperitoneal, 30 min prior to zymosan
Protocol: Compound I-12 was evaluated in vivo in a peritonitis model in mice. The experimental protocols were approved by the Animal Care Committee of the University of Naples Federico II, in compliance with Italian regulations on protection of animals used for experimental and other scientific purpose (Ministerial Decree 116/92) as well as with the European Economic Community regulations (Official Journal of E.C. L 358/1 12/18/1986); protocol number: 2014/0018760 27th February 2014. CD1 male mice with an age of six to eight weeks were investigated. The leukotriene mediated peritonitis is induced by injection of 1 mg zymosan in 50 µl saline solution. 30 min prior to induction, the candidate compound was applied as intraperitoneal injection in different concentrations as well as DMSO as negative control and positive controls (MK886, zileuton). Results are given in Table 3, wherein […] and LTB 4 levels are measured as well as vascular permeability (VP) and the cell recruitment in the peritoneal cavity (Cell Rec). Table 3: Results from an in vivo study with a mouse peritonitis model
In Table 3, values in percent indicate the percent inhibition in respect to the vehicle control. Statistical significance is determined via ANOVA Bonferroni, wherein * indicates p<0.05; ** indicates p<0.01; *** indicates p<0.001 vs. vehicle. N indicates the number of investigated mice.

COX-2 = biological target: T1, COX-2 (Homo sapiens, UniProt P35354); test: COX-2 activity; assay type: biochemical; settings: concentrations up to 10 µM
T1 sequence (P35354 18-604): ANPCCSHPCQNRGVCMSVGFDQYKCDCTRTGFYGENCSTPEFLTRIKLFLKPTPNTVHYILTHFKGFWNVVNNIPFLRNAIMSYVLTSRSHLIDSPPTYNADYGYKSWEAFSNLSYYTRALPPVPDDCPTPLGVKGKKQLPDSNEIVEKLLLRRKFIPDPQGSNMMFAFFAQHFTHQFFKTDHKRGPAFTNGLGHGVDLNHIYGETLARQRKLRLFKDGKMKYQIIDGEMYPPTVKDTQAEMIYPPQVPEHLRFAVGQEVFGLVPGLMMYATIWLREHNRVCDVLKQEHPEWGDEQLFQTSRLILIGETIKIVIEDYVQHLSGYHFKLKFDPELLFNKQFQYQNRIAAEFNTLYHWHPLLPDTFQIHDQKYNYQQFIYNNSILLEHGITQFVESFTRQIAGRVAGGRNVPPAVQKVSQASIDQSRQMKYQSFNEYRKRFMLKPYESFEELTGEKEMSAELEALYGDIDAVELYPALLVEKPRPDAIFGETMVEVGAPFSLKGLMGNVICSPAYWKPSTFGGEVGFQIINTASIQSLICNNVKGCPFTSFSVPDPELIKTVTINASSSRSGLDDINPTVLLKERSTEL

isolated 5-LOX = biological target: T2, isolated 5-LOX (Homo sapiens, UniProt P09917); test: FLAP-independent cell-free enzymatic assay with isolated recombinant 5-LOX; assay type: biochemical; settings: for inhibition at 10 µM: read-out: Effect on isolated 5-LOX, % inhibition
T2 construct: made in house; host or cells: E. coli
T2 sequence (P09917 1-674): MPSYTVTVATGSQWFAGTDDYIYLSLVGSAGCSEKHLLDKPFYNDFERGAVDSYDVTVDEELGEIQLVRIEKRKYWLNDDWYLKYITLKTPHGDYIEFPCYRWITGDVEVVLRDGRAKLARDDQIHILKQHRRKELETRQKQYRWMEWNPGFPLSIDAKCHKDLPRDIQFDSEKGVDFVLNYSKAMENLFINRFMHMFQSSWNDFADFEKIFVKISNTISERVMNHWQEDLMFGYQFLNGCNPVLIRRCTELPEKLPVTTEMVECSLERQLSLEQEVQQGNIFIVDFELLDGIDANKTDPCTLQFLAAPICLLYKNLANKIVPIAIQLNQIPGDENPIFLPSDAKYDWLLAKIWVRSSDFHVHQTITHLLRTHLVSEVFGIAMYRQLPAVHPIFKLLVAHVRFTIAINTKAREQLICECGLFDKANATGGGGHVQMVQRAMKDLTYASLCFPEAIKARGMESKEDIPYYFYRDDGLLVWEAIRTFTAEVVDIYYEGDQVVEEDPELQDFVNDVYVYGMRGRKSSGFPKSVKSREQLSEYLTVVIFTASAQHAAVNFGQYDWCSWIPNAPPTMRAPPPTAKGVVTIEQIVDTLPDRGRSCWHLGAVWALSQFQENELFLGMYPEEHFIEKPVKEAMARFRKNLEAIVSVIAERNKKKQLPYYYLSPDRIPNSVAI
Protocol: as §2

sEH [3] = biological target: T3, sEH (Homo sapiens, UniProt P34913); test: biochemical; settings: read-out: Effect on sEH activity, % inhibition
T3 sequence (P34913 1-555): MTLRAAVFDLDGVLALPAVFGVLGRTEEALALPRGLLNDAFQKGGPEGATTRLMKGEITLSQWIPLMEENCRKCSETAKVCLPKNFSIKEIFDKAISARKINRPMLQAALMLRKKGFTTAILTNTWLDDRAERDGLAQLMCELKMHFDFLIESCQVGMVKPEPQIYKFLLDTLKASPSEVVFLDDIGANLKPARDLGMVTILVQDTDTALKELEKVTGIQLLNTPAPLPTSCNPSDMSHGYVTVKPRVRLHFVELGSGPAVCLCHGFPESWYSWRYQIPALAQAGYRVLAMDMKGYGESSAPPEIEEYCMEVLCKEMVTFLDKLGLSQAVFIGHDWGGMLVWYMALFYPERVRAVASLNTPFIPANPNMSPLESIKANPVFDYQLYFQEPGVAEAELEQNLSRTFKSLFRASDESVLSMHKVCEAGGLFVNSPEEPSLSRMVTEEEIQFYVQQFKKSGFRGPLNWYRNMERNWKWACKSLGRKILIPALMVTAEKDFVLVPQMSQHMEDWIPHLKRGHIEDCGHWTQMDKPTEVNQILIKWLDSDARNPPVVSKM
Protocol: (§3) In brief, sEH was expressed in transfected Sf9-cells. Isolation of sEH from the cell pellet was conducted with a benzylthiosepharose matrix. […] The reaction was stopped with ZnSO4 (0.2 M) after 60 min incubation. […] Inhibitors were tested for self fluorescence. Positive controls were AUDA (12-(3-adamantan-1-yl-ureido)dodecanacid) and DCU (N,N'-dicyclohexylurea) at 10 µM.

FLAP = biological target: T4, FLAP (Homo sapiens, UniProt P20292); settings: active = inhibition of product formation in cells without 5-LOX activity in the cell-free assay
T4 sequence (P20292 1-161): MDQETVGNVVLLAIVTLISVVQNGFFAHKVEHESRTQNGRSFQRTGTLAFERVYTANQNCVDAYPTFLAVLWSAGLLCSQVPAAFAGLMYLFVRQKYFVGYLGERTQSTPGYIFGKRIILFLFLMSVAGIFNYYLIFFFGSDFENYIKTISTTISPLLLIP
Protocol: The enzyme was preincubated for 15 min with the potential inhibitor on ice and subsequently exposed to 2 mM CaCl2 and 20 µM AA for 10 min at 37°C.
Effect on 5-LOX product formation and sEH activity is determined as described above. In case of observed effect on 5-LOX product formation in the cellular assay, 5-LOX activity was investigated with isolated 5-LOX.

sEH [4] = biological target: T3, sEH; settings: at 0.1 µM
Protocol: as §3

[5] = Homo sapiens, PMNL, read-out: Effect on 5-LOX product formation in PMNL, IC50

In the case of Cc1cc(OCc2nc3ccccc3s2)ccc1NC(=O)Nc1ccc(Cl)c(Cl)c1 [Compound I-12, N-[4-(2-benzothiazolylmethoxy)-2-methylphenyl]-N'-(3,4-dichlorophenyl)-urea], the “effect on 5-LOX product formation” value (HEK cells with FLAP) is reported as “inhibits the product formation”, the “product formation of 15-LOX (15-HETE)” value (15-LOX; 10 µM AA) is reported as “increase of the product formation” and the “product formation of 15-LOX” value (15-LOX; exogenous AA 10, 30 or 60 µM) is reported as “did not inhibit”. The “product formation of 12-LOX” value (12-LOX) was “did not inhibit”, the mPGES (mPGES) was “not affected” and the COX-1 activity (COX-1) was “not affected”. For the same molecule, the “effect on 5-LOX product formation” value (HEK cells without FLAP) was “nearly no effect”, the IC50 ([1]; Homo sapiens, PMNL, male PMNL cells, Exogenous AA 3 µM, read-out: IC50 values for 5-LOX product formation) was 0.38 µM and the IC50 ([1]; Homo sapiens, PMNL, male PMNL cells, Exogenous AA 10 µM, read-out: IC50 values for 5-LOX product formation) was 1.6 µM. It also gave an IC50 ([1]; Homo sapiens, PMNL, male PMNL cells, Exogenous AA 30 µM, read-out: IC50 values for 5-LOX product formation) of 2.1 µM, an IC50 ([1]; Homo sapiens, PMNL, male PMNL cells, Exogenous AA 60 µM, read-out: IC50 values for 5-LOX product formation) of 9.1 µM and an IC50 [1, 5] of 0.24 µM. For the same molecule, the “Cell Rec (cell recruitment in the peritoneal cavity)” value ([2]; 1 mg) was 5.93±0.321 10^6/ml, the “Cell Rec, percent inhibition in respect to the vehicle control” value (from here on “Cell Rec, percent inhibition”) ([2]; 1 mg) was 22% and the LTB4 ([2]; 1 mg) was 280 ± 42.8 pg/mL. For the same molecule, the “LTB4, percent inhibition in respect to the vehicle control” value (“LTB4, percent inhibition” for short) ([2]; 1 mg) was 59%**, the LTC4 ([2]; 1 mg) was 26.0 ± 9.47 ng/mL and the “LTC4, percent inhibition in respect to the vehicle control” value (“LTC4, percent inhibition” for short) ([2]; 1 mg) was 70%***. The “Cell Rec (cell recruitment in the peritoneal cavity)” value ([2]; 3 mg) was 4.4±0.509 10^6/ml, the “Cell Rec, percent inhibition” value ([2]; 3 mg) was 42%*** and the LTB4 ([2]; 3 mg) was 345 ± 69.2 pg/mL. For the same molecule, the “LTB4, percent inhibition” value ([2]; 3 mg) was 50%*, the LTC4 ([2]; 3 mg) was 30.5 ± 10.3 ng/mL and the “LTC4, percent inhibition” value ([2]; 3 mg) was 66%***. For the same molecule, the “Cell Rec (cell recruitment in the peritoneal cavity)” value ([2]; 10 mg) was 3.36±0.439 10^6/ml, the “Cell Rec, percent inhibition” value ([2]; 10 mg) was 56%*** and the LTB4 ([2]; 10 mg) was 193 ± 34.4 pg/mL. For the same molecule, the “LTB4, percent inhibition” value ([2]; 10 mg) was 72%***, the LTC4 ([2]; 10 mg) was 25.8 ± 2.66 ng/mL and the “LTC4, percent inhibition” value ([2]; 10 mg) was 70%***. For the same molecule, the “VP (vascular permeability)” value ([2]; 10 mg) was 0.347±0.09 abs 610 nm, the “VP, percent inhibition in respect to the vehicle control” value ([2]; 10 mg) was 38% and the COX-2 activity (COX-2) was “not affected”.
Cc1cc(OCc2nc3ccccc3n2C(=O)OC(C)(C)C)ccc1NC(=S)Nc1ccc(Cl)c(Cl)c1 [EZ15, N-[4-(1-tert.-Butoxycarbonyl-1H-benzimidazol-2-ylmethoxy)-2-methylphenyl]-N'-(3,4-dichlorophenyl)-thiourea] gave an inhibition at 10 µM (isolated 5-LOX; at 10 µM) of roughly 33%, an inhibition at 10 µM ([1]; Homo sapiens, PMNL, at 10 µM) of roughly 39% and an inhibition at 10 µM (sEH [3]) of roughly 66%. The “Effect on FLAP activity” value (FLAP) was “inactive”.
Cc1cc(OCc2nc3ccccc3[nH]2)ccc1NC(=S)Nc1ccc(Cl)c(Cl)c1 [EZ17, N-[4-(1H-Benzimidazol-2ylmethoxy)-2-methylphenyl]-N'-(3,4-dichlorophenyl)-thiourea] gave an inhibition at 10 µM (isolated 5-LOX; at 10 µM) of 65%, an IC50 [1, 5] of 0.82 µM and an inhibition at 10 µM (sEH [3]) of roughly 64%. For the same molecule, the “Effect on FLAP activity” value (FLAP) was “active”.
Molecule CC(C)(C)OC(=O)n1c(COc2ccc(NC(=O)Nc3ccc(Cl)c(Cl)c3)cc2)nc2ccccc21 [EZ18, N-[4-(1-tert.-Butoxycarbonyl-1H-benzimidazol-2-ylmethoxy)-phenyl]-N'-(3,4-dichlorophenyl)-urea] has an inhibition at 10 µM (isolated 5-LOX; at 10 µM) of roughly 22%, an inhibition at 10 µM ([1]; Homo sapiens, PMNL, at 10 µM) of roughly 40% and an inhibition at 0.1 µM (sEH [3]) of roughly 67%.
O=C(Nc1ccc(OCc2nc3ccccc3[nH]2)cc1)Nc1ccc(Cl)c(Cl)c1 [EZ19, N-[4-(1-H-Benzimidazol-2-ylmethoxy)-phenyl]-N'-(3,4-dichlorophenyl)-urea] was tested, and the “Effect on sEH activity, % inhibition” value (sEH [4]) was “∼52 % inhibition at 0.1 µM”, the “Effect on isolated 5-LOX, % inhibition” value (isolated 5-LOX; at 10 µM) was “∼33 % inhibitio n at 10 µM” and the IC50 ([1]; read-out: Effect on 5-LOX product formation in PMNL, IC50) was 0.55 µM. For the same molecule, the “Effect on FLAP activity” value (FLAP) was “active”.
CC(C)(C)OC(=O)n1c(COc2ccc(NC(=S)Nc3ccc(Cl)c(Cl)c3)cc2)nc2ccccc21 [EZ20, N-[4-(1-tert.-Butoxycarbonyl-1H-benzimidazol-2-ylmethoxy)-phenyl]-N'-(3,4-dichlorophenyl)-thiourea] was tested, and the inhibition at 10 µM (isolated 5-LOX) was roughly 39%, the inhibition at 10 µM ([1]; Homo sapiens, PMNL) was -65% and the inhibition at 0.1 µM (sEH [3]) was roughly 39%. For the same molecule, the “Effect on FLAP activity” value (FLAP) was “inactive”.
S=C(Nc1ccc(OCc2nc3ccccc3[nH]2)cc1)Nc1ccc(Cl)c(Cl)c1 [EZ21, N-[4-(1-H-Benzimidazol-2-ylmethoxy)-phenyl]-N'-(3,4-dichlorophenyl)-thiourea] was tested, and the inhibition at 10 µM (isolated 5-LOX; at 10 µM) was 87%, the IC50 [1, 5] was 0.69 µM and the inhibition at 10 µM (sEH [3]) was roughly 54%.
